Data taken from ChEMBL document CHEMBL1201862, “PubChem BioAssay data set” (2004).
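All cell lines were grown in 96-well plates and treated with compound for 48 hours. GI50: concentration for 50% inhibition of growth.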 Activity calls are given as the source filed them. Rule as the data show it: active = GI50 up to about 1.1 µM and inactive = higher.

Tests used:
Assay in all cases: NCI tumour cell line growth inhibition, 48 h
[1] = system: A549
[2] = system: BT-549
[3] = system: CAKI-1
[4] = system: EKVX
[5] = system: HCT-116
[6] = system: HCT-15
[7] = system: HL-60
[8] = system: HT-29
[9] = system: K562
[10] = system: MCF7
[11] = system: NCI-H226
[12] = system: NCI-H23
[13] = system: NCI-H460
[14] = system: NCI-H522
[15] = system: OVCAR-4
[16] = system: OVCAR-8
[17] = system: SF-295
[18] = system: SK-MEL-28
[19] = system: SN12C
[20] = system: T47D

Row | Compound | GI50 [1] | GI50 [2] | GI50 [3] | GI50 [4] | GI50 [5] | GI50 [6] [µM] | GI50 [7] | GI50 [8] | GI50 [9] | GI50 [10] | GI50 [11] | GI50 [12] | GI50 [13] | GI50 [14] | GI50 [15] | GI50 [16] | GI50 [17] | GI50 [18] | GI50 [19] | GI50 [20]
1 | COC(=O)C(Cc1c[nH]c2ccccc12)NP(=O)(O)OCC1OC(n2ccc(N)nc2=O)C(O)C1O (stereo unspecified) | > 100 µM (inactive) | > 100 µM (inactive) | > 100 µM (inactive) | > 100 µM (inactive) | > 100 µM (inactive) | > 100 | > 100 µM (inactive) | > 100 µM (inactive) | > 100 µM (inactive) | > 100 µM (inactive) | > 100 µM (inactive) | > 100 µM (inactive) | > 100 µM (inactive) | > 100 µM (inactive) | > 100 µM (inactive) | > 100 µM (inactive) | > 100 µM (inactive) | > 100 µM (inactive) | > 100 µM (inactive) | > 100 µM (inactive)
2 | c1ccc(-c2cs[s+]c2)cc1 | > 100 µM (inactive) | > 100 µM (inactive) | > 100 µM (inactive) | > 100 µM (inactive) | > 100 µM (inactive) | 40.8 | 41.9 µM (inactive) | > 100 µM (inactive) | 34.2 µM (inactive) | > 100 µM (inactive) | > 100 µM (inactive) | > 100 µM (inactive) | 31.8 µM (inactive) | 46.2 µM (inactive) | > 100 µM (inactive) | > 100 µM (inactive) | > 100 µM (inactive) | > 100 µM (inactive) | > 100 µM (inactive) | > 100 µM (inactive)
3 | CC1=C(C(=O)NCCCN(CCO)CCO)CC(C(=O)NCCCN(CCO)CCO)=C(C)N1 | > 100 µM (inactive) | > 100 µM (inactive) | > 100 µM (inactive) | > 100 µM (inactive) | > 100 µM (inactive) | > 100 | > 100 µM (inactive) | > 100 µM (inactive) | > 100 µM (inactive) | > 100 µM (inactive) | > 100 µM (inactive) | > 100 µM (inactive) | > 100 µM (inactive) | 98.9 µM (inactive) | > 100 µM (inactive) | > 100 µM (inactive) | > 100 µM (inactive) | – | > 100 µM (inactive) | 62.1 µM (inactive)
4 | COc1ccc(Cc2nc3cc(C(F)(F)F)ccc3n2C[C@@H]2CCCN3CCCCC23)cc1 (stereo partly specified) | 9.02 µM (inactive) | 13.8 µM (inactive) | 12.6 µM (inactive) | 13.6 µM (inactive) | 5.58 µM (inactive) | 14.2 | 4.81 µM (inactive) | 5.06 µM (inactive) | 13.7 µM (inactive) | 8.34 µM (inactive) | 18.1 µM (inactive) | 14.6 µM (inactive) | 13.6 µM (inactive) | 7 µM (inactive) | 11.7 µM (inactive) | 15.3 µM (inactive) | 5.82 µM (inactive) | 13 µM (inactive) | 7.31 µM (inactive) | 6.04 µM (inactive)
5 | CNC(=O)N(CCC#N)CCN(C(=O)N(C)C)c1ccccc1 | > 100 µM (inactive) | > 100 µM (inactive) | > 100 µM (inactive) | > 100 µM (inactive) | > 100 µM (inactive) | > 100 | > 100 µM (inactive) | > 100 µM (inactive) | > 100 µM (inactive) | > 100 µM (inactive) | > 100 µM (inactive) | > 100 µM (inactive) | > 100 µM (inactive) | > 100 µM (inactive) | > 100 µM (inactive) | > 100 µM (inactive) | > 100 µM (inactive) | > 100 µM (inactive) | > 100 µM (inactive) | > 100 µM (inactive)
6 | CC(=O)N/N=C1/CC[C@@]2(C)C(=CC[C@H]3C4CCC(C(C)CCCC(C)C)[C@@]4(C)CCC32)C1(C)C (stereo partly specified) | 31.1 µM (inactive) | > 100 µM (inactive) | > 100 µM (inactive) | > 100 µM (inactive) | 48.8 µM (inactive) | 40.6 | 42 µM (inactive) | 31.5 µM (inactive) | 15.9 µM (inactive) | 53.7 µM (inactive) | > 100 µM (inactive) | 70 µM (inactive) | 32.1 µM (inactive) | 58.9 µM (inactive) | 50.5 µM (inactive) | 51.1 µM (inactive) | 22.3 µM (inactive) | > 100 µM (inactive) | 51.4 µM (inactive) | 70.5 µM (inactive)
7 | CC(=O)Nn1c(Cc2ccc(Cl)cc2)nn(C)c1=O | > 100 µM (inactive) | > 100 µM (inactive) | > 100 µM (inactive) | > 100 µM (inactive) | > 100 µM (inactive) | > 100 | > 100 µM (inactive) | > 100 µM (inactive) | > 100 µM (inactive) | > 100 µM (inactive) | > 100 µM (inactive) | > 100 µM (inactive) | > 100 µM (inactive) | > 100 µM (inactive) | > 100 µM (inactive) | > 100 µM (inactive) | > 100 µM (inactive) | > 100 µM (inactive) | > 100 µM (inactive) | > 100 µM (inactive)
8 | CCOC(=O)CCC(C(=O)OCC)n1nc2ccc(Nc3c(C)[n+]([O-])c4cc(Cl)ccc4[n+]3[O-])cc2n1 (stereo unspecified) | > 100 µM (inactive) | > 100 µM (inactive) | 61.7 µM (inactive) | 32.2 µM (inactive) | 30.1 µM (inactive) | 88.1 | 96.8 µM (inactive) | 64.9 µM (inactive) | 82 µM (inactive) | 38.2 µM (inactive) | 62.4 µM (inactive) | > 100 µM (inactive) | 24.3 µM (inactive) | 40 µM (inactive) | 65.8 µM (inactive) | > 100 µM (inactive) | 82.4 µM (inactive) | – | 73.3 µM (inactive) | 32.9 µM (inactive)
9 | COC(=O)c1scc(N)c1-n1ccc(=O)[nH]c1=O | > 100 µM (inactive) | > 100 µM (inactive) | > 100 µM (inactive) | > 100 µM (inactive) | > 100 µM (inactive) | > 100 | > 100 µM (inactive) | > 100 µM (inactive) | > 100 µM (inactive) | > 100 µM (inactive) | > 100 µM (inactive) | > 100 µM (inactive) | > 100 µM (inactive) | > 100 µM (inactive) | > 100 µM (inactive) | > 100 µM (inactive) | – | > 100 µM (inactive) | > 100 µM (inactive) | > 100 µM (inactive)
10 | O=c1[nH]c(=O)n(C2OC(CO)C(O)C(F)C2O)cc1F (stereo unspecified) | > 100 µM (inactive) | > 100 µM (inactive) | > 100 µM (inactive) | – | > 100 µM (inactive) | > 100 | > 100 µM (inactive) | > 100 µM (inactive) | > 100 µM (inactive) | > 100 µM (inactive) | > 100 µM (inactive) | > 100 µM (inactive) | > 100 µM (inactive) | > 100 µM (inactive) | > 100 µM (inactive) | > 100 µM (inactive) | > 100 µM (inactive) | > 100 µM (inactive) | > 100 µM (inactive) | > 100 µM (inactive)
